In assay [1] the test system is HS-PSS. In words: % inhibition of CellTiter-Glo viability at highest tested concentration (72 h), relative to DMSO and benzethonium chloride controls; higher = more inhibition. In a few lines:
(§1)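 Viability was scored by CellTiter-Glo ATP luminescence, scaled from vehicle to positive-control wells, with duplicates averaged where present. The cells, MPNST lines and primary human Schwann cells at 750–1000 per well, sat 72 h at 37 °C, 5% CO2, in 384-well plates preprinted with each compound at five concentrations in 10-fold steps. Four-parameter logistic fits were run on the data. These fits give drug sensitivity score and relative IC50 censored at the top concentration, and percent inhibition is reported at the top concentration.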

For assay [2], the system named is YST-1. The assay is described as above. In a few lines:
as §1

The subject of assay [3] is HS-Sch-2. The assay is described as above. In a few lines:
as §1

Assay [4] deals with HS-PSS. As to the kind of experiment: drug sensitivity score (DSS, CellTox-Green cytotoxicity, 72 h) (DSS (dimensionless)); higher = more cytotoxic; extreme values may be limits of the assay. In a few lines: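 MPNST cell lines and primary human Schwann cells were incubated 72 h at 37 °C in 384-well plates holding five 10-fold compound dilutions. CellTox-Green was added before seeding at a final 1:1000 dilution and reported fluorescence from DNA released by disrupted cells. Signals were scaled to vehicle and positive-control wells, and cultures failing plate quality control were dropped. Drug sensitivity score and relative IC50 come from four-parameter logistic fits, with IC50 censored at the top concentration.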

The subject of assay [5] is HS-PSS. In words: drug sensitivity score (DSS, CellTiter-Glo viability, 72 h) (DSS (dimensionless)); higher = more sensitive; extreme values may be limits of the assay. In a few lines:
as §1

Assay [6] concerns YST-1. The assay is described as above. In a few lines: as §1
The test system of assay [7] is HS-Sch-2. The assay is described as above. In a few lines: as §1

SMILES strings stand for the structures.

One may read the % inhibition as the drop in the measured response relative to a control, in per cent. On to `C=CC(=O)Nc1cccc(Nc2nc(Nc3ccc(OCCOC)cc3)ncc2F)c1` [Spebrutinib] (max concentration tested 1000 nM), for which the results for the “% inhibition” value in assay [1], in assay [2] and in assay [3] were 20.7%, 15.3% and 12.6%, respectively. Moreover, the drug sensitivity score in assay [4] amounted to 0; in assay [5], 0.48; in assay [6], 0.89; in assay [7], 0.45.
With `O=C(O)CC1CC(c2ccccc2)=NO1` (stereo not given) [VGX-1027] (max concentration tested 10000 nM), the “% inhibition” value in assay [1] was found to be 4.47%; in assay [2] it was 4%; in assay [3] it was 13.4%. The drug sensitivity score in assay [4] came to 0; in assay [5] it was 0; in assay [6] it was 0; in assay [7], 0.12.
Consider `CN1CCN(c2cc(C(=O)Nc3ccc4c(c3)-c3c(c(C(N)=O)nn3-c3ccc(F)cc3)CC4)c(Cl)cn2)CC1` [PHA 408] (max concentration tested 10000 nM), for which the figures for the “% inhibition” value in assay [1], in assay [2] and in assay [3] were 101%, 99.9% and 99.8%, respectively. Besides, the drug sensitivity score worked out at 4.95 in assay [4], 7.02 in assay [5], 5.73 in assay [6] and 5.4 in assay [7].
Consider `Cc1cc(OCc2nnc(SC3CCCC3)n2-c2cccnc2)ccc1-c1ccc(S(C)(=O)=O)cc1` [NMS-873] (max concentration tested 10000 nM), for which the “% inhibition” value in assay [1] came out at 99.9%; in assay [2], 99.9%; in assay [3], 101%. Also, the drug sensitivity score in assay [4] is 5.58; in assay [5] it was 22.9; in assay [6] it was 9.52; in assay [7], 19.2.
For `COc1ccc(Cl)c(Nc2nc3ccccc3nc2NS(=O)(=O)c2cccc(NC(=O)C(C)(C)N)c2)c1` [Pilaralisib] (max concentration tested 2500 nM), the results for the “% inhibition” value in assay [1], in assay [2] and in assay [3] were 7.45%, 42.6% and 14.3%, respectively. Moreover, the drug sensitivity score in assay [4] was 0; in assay [5], 0; in assay [6], 2.53; in assay [7], 0.34.
Turning to `Cn1ncc(Cl)c1-c1cc(C(=O)N[C@H](CN)Cc2cccc(F)c2)sc1Cl` [Afuresertib] (max concentration tested 1000 nM), the results for the “% inhibition” value in assay [1], in assay [2] and in assay [3] were 13.3%, 32% and 1.85%, respectively. The drug sensitivity score is 0 in assay [4], 0.07 in assay [5], 1.39 in assay [6] and 0 in assay [7].
Regarding `Cn1cnc2c(F)c(Nc3ccc(Br)cc3F)c(C(=O)NOCCO)cc21` [Binimetinib] (max concentration tested 1000 nM), the “% inhibition” value stood at 7.79% in assay [1], 6.26% in assay [2] and 21.1% in assay [3]. The drug sensitivity score came to 0 in assay [4], 0 in assay [5], 0 in assay [6] and 0.81 in assay [7].
`C[C@H](Nc1ncnc2nc[nH]c12)c1cc2cccc(Cl)c2c(=O)n1-c1ccccc1` [Duvelisib] (max concentration tested 500 nM): the “% inhibition” value was -0.01% in assay [1], 19.5% in assay [2] and 13.6% in assay [3]. Moreover, the drug sensitivity score in assay [4] worked out at 0.21; in assay [5] it was 0; in assay [6], 0.82; in assay [7], 0.22.
`CC(C)Oc1cc(Nc2nc(N[C@@H](C)c3ccc(F)cn3)ncc2Cl)n[nH]1` [AZ-23] (max concentration tested 1000 nM): the “% inhibition” value in assay [1] was 12.4%; in assay [2] it was 26.5%; in assay [3] it was 21.1%. The drug sensitivity score in assay [4] was determined as 0; in assay [5], 0.29; in assay [6], 1.96; in assay [7], 1.29.
As for `Cn1ncnc1[C@H]1c2n[nH]c(=O)c3cc(F)cc(c23)N[C@@H]1c1ccc(F)cc1` [Talazoparib] (max concentration tested 1000 nM), the “% inhibition” value in assay [1] was 21.9%; in assay [2], 61.3%; in assay [3] it was 25.4%. For the same compound, the drug sensitivity score in assay [4] came out at 0; in assay [5] it was 3.37; in assay [6], 15.5; in assay [7], 1.84.
Consider `CCNC(=O)c1noc(-c2cc(C(C)C)c(O)cc2O)c1-c1ccc(CN2CCOCC2)cc1` [Luminespib] (max concentration tested 1000 nM), for which the “% inhibition” value turned out to be 82.2% in assay [1], 79.6% in assay [2] and 98.9% in assay [3]. Besides, the drug sensitivity score amounted to 3.7 in assay [4], 14 in assay [5], 19.5 in assay [6] and 23.5 in assay [7].
As to `C[C@@H]1COC(Nc2ccc3ncnc(Nc4ccc(OCc5nccs5)c(Cl)c4)c3c2)=N1` [Varlitinib] (max concentration tested 10000 nM), the “% inhibition” value in assay [1] is 42%; in assay [2], 27.7%; in assay [3] it was 30.6%. For the same compound, the drug sensitivity score was 0 in assay [4], 5.07 in assay [5], 3.23 in assay [6] and 2.41 in assay [7].
`c1ccc(Cn2c(-c3ccc(OC[C@H](C4CCNCC4)n4c(-c5ccccc5)nc5ccccc54)cc3)nc3ccccc32)cc1` [deltarasin] (max concentration tested 10000 nM): the “% inhibition” value in assay [1] amounted to 101%; in assay [2] it was 100%; in assay [3], 101%. Also, the drug sensitivity score in assay [4] is 5.68; in assay [5], 6.88; in assay [6], 5.29; in assay [7] it was 5.77.
`CC(C)c1cc(C(=O)N2Cc3ccc(CN4CCN(C)CC4)cc3C2)c(O)cc1O` [Onalespib] (max concentration tested 2500 nM): the “% inhibition” value amounted to 81.9% in assay [1], 75.8% in assay [2] and 101% in assay [3]. Also, the drug sensitivity score in assay [4] came to 6.31; in assay [5], 13.2; in assay [6], 12.6; in assay [7], 21.4.
Consider `CCNC(=O)Nc1ccc(-c2nc3c(c(N4CCOC[C@@H]4C)n2)CCN(C2COC2)C3)cc1` [RG-7603] (max concentration tested 2500 nM), for which the “% inhibition” value is 32.4% in assay [1], 56.2% in assay [2] and 33.8% in assay [3]. Also, the drug sensitivity score is 0 in assay [4], 1.5 in assay [5], 6.56 in assay [6] and 3.02 in assay [7].

For the origin of these results see the supplement of paper PMC5579334.
